Laboratory results as given in US20180340225A1 (SHANGHAI INSTITUTE FOR ENDOCRINE AND METABOLIC DISEASES, priority 2015, published 2018).

Test system: patients with Type 2 diabetes
Experiment: Clinical efficacy indexes before and after 3 months of Acarbose treatment in naïve patients with Type 2 diabetes, by enterotype
Type: in vivo, human
Conditions: Bacterioide enterotype, After treatment
Description: For naïve patients with Type 2 diabetes, their liver and kidney functions, blood glucose and lipid levels, intestinal hormones, inflammatory factors, and cardiovascular risk-related factors are evaluated before medication. Their stool, urine, and blood samples are retained. […] The patients' blood glucose levels are followed up every month within 3 months, and the medication is adjusted according to the blood glucose level. Three months later, the pre-medication assessment is repeated, and the urine, stool and blood samples are retained.
a) A randomized, opened, positive control method is adopted to collect the naïve patients with Type 2 diabetes and normal controls of their spouses. […] The newly diagnosed patients of Type 2 diabetes without medication receive routine examinations, including the retention of stool and blood samples.
i. Draw venous blood 15 ml under fasting condition, of which, 1.5 ml is used for detection of plasma glucose, 6.5 ml is added to ordinary tubes (including aprotinin, DPPV inhibitor), and 6.5 ml is added to anticoagulant tubes (including heparin and RNA later)
ii. Centrifuge the blood in ordinary tube at 4° C., when serum is separated out, draw about 3 ml, and divide to three 1.5 ml Eppendorf on average, then tighten the tube caps;
iii. Centrifuge the anticoagulation blood immediately at 4° C., to separate out about 3 ml of plasma, then divide to three 1.5 ml imported RNAase free Eppendorf tubes on average, […]

In the case of `C[C@H]1O[C@H](O[C@H]2[C@H](O)[C@@H](O)[C@@H](O[C@H]3[C@H](O)[C@@H](O)C(O)O[C@@H]3CO)O[C@@H]2CO)[C@H](O)[C@@H](O)[C@@H]1N[C@H]1C=C(CO)[C@@H](O)[C@H](O)[C@H]1O` (stereo partly shown) [Acarbose], the “AKP Mean” value is reported as 59.23, the “ALB Mean” value is reported as 42.26 and the “ALT Mean” value is reported as 29.43. The “APOA Mean” value was 1.2475, the “APOB Mean” value was 0.9636 and the “AST Mean” value was 22.46. The “Adipisin Mean” value was 3174901.441, the “Adpn Mean” value was 5157339.824 and the “BMI Mean” value was 25.51. For the same compound, the “BW Mean” value was 71.91, the “CP0 Mean” value was 2.216 and the “CP30 Mean” value was 2.7525. For the same compound, the “CP60 Mean” value was 3.71, the “CP120 Mean” value was 5.204 and the “CP180 Mean” value was 4.843. The “DBIL Mean” value was 2.966, the “DBP Mean” value was 75.37 and the “ENDOM Mean” value was 13.44. For the same compound, the “Endothelin Mean” value was 4.159, the “FABP3 Mean” value was 2351 and the “FABP4 Mean” value was 11504.54286. The “FGF1M Mean” value was 22.57, the “FGF2M Mean” value was 12.69 and the “FGF19M Mean” value was 19.74. For the same compound, the “FGF23M Mean” value was 37.07, the “G30 Mean” value was 7.623 and the “G60 Mean” value was 9.074. The “G120 Mean” value was 9.171, the “G180 Mean” value was 7.941 and the “GIP0 Mean” value was 80.26. For the same compound, the “GIP30 Mean” value was 219.1, the “GIP60 Mean” value was 258.945 and the “GIP120 Mean” value was 264. For the same compound, the “GIP180 Mean” value was 201.6, the “GMCSFM Mean” value was 64.62 and the “GO Mean” value was 6.607. For the same compound, the “HB Mean” value was 140.6, the “HBA1C Mean” value was 6.425 and the “HDL Mean” value was 2.989. For the same compound, the “HGF Mean” value was 434.2, the “HIP Mean” value was 98.83 and the “HOMA.IR Mean” value was 2.487. The “IFNr1 Mean” value was 42.1, the “IL1B Mean” value was 0.5324 and the “IL1bM Mean” value was 14.66. For the same compound, the “IL2M Mean” value was 53.46, the “IL4M Mean” value was 30.73 and the “IL5M Mean” value was 38.44. For the same compound, the “IL6M Mean” value was 55.85, the “IL6 Mean” value was 4.846 and the “IL8 Mean” value was 11.92. The “IL9M Mean” value was 84.63, the “IL10 Mean” value was 2.301 and the “IL12 Mean” value was 10.12. The “IL13 Mean” value was 311.7, the “IL15M Mean” value was 333.3 and the “IL17AM Mean” value was 33.74. The “IL17EM Mean” value was 22.24, the “IL17FM Mean” value was 181.4 and the “IL21 Mean” value was 29.13. The “IL22M Mean” value was 42.5, the “IL23M Mean” value was 39.35 and the “IL27 Mean” value was 61.28. The “IL28a Mean” value was 20.04, the “IL31M Mean” value was 113 and the “IL33M Mean” value was 42.13. The “INS0 Mean” value was 8.284, the “INS30 Mean” value was 14.5 and the “INS60 Mean” value was 23.7. For the same compound, the “INS120 Mean” value was 30.33, the “INS180 Mean” value was 22.83 and the “K Mean” value was 7.893. For the same compound, the “LBP Mean” value was 17.36, the “LDL Mean” value was 1.242 and the “LEPTIN Mean” value was 6481. The “LPA Mean” value was 32.841, the “Lymph Mean” value was 28.87 and the “MCP1 Mean” value was 256.6. The “MIP3A Mean” value was 43.77, the “NEU Mean” value was 58.47 and the “NGAL Mean” value was 125535.0294. The “NGF Mean” value was 1.865, the “Na Mean” value was 136.9 and the “PAI1 Mean” value was 52769.94118. The “PDGFAA Mean” value was 4702, the “PDGFAABB Mean” value was 24130.63636 and the “PP0 Mean” value was 80.32. The “PP30 Mean” value was 331.7, the “PP60 Mean” value was 330.8 and the “PP120 Mean” value was 258.8. The “PP180 Mean” value was 174, the “RANTES Mean” value was 50811.91176 and the “RBC Mean” value was 4.832. For the same compound, the “RCv Mean” value was 2.58, the “SBP Mean” value was 120.9 and the “TBIL Mean” value was 16.36. For the same compound, the “TC Mean” value was 4.736, the “TG Mean” value was 1.525 and the “TNFBM Mean” value was 38.44. The “TNFa Mean” value was 4.773, the “TPRO Mean” value was 70.11 and the “Trophonin M Mean” value was 16.15. The “WAIST Mean” value was 88.45, the “WBC Mean” value was 6.913 and the “WHR Mean” value was 0.8956. For the same compound, the “bun Mean” value was 329.2, the “creatine Mean” value was 67.61 and the “crp Mean” value was 29.96. The “egf Mean” value was 183.4, the “fetuinA Mean” value was 400.9 and the “fgf1 Mean” value was 11.66. For the same compound, the “fgf2 Mean” value was 35.4, the “fgf21M Mean” value was 100.1 and the “fgf21 Mean” value was 0.37. For the same compound, the “monocyte Mean” value was 5.481, the “mpo Mean” value was 275.8 and the “oscatinM Mean” value was 86.94. For the same compound, the “pCP0 Mean” value was 1099, the “pCP30 Mean” value was 1394 and the “pCP60 Mean” value was 1891. The “pCP120 Mean” value was 2787, the “pCP180 Mean” value was 2452 and the “pGLP10 Mean” value was 4.564. For the same compound, the “pGLP130 Mean” value was 12.21, the “pGLP160 Mean” value was 13.2 and the “pGLP1120 Mean” value was 10.47. The “pGLP1180 Mean” value was 7.518, the “pHOMA.IR Mean” value was 2.565 and the “pgh0 Mean” value was 55.75. The “pgh30 Mean” value was 70.15, the “pgh60 Mean” value was 66.51 and the “pgh120 Mean” value was 58.56. For the same compound, the “pgh0180 Mean” value was 60.3, the “pgluc0 Mean” value was 37.3 and the “pgluc30 Mean” value was 43.28. The “pgluc60 Mean” value was 43.96, the “pgluc120 Mean” value was 35.95 and the “pgluc180 Mean” value was 32.29. The “pins0 Mean” value was 391, the “pins30 Mean” value was 561.8 and the “pins60 Mean” value was 892.8875. For the same compound, the “pins120 Mean” value was 1169, the “pins180 Mean” value was 916.7 and the “platelet Mean” value was 214. For the same compound, the “ppyy0 Mean” value was 49.602, the “ppyy30 Mean” value was 55.74 and the “ppyy60 Mean” value was 59.37. The “ppyy120 Mean” value was 54.45, the “ppyy180 Mean” value was 56.15 and the “rGT Mean” value was 24.82. The “resistin Mean” value was 14639.64706, the “sicam1 Mean” value was 112.3 and the “svcam1 Mean” value was 484.8. For the same compound, the “urea Mean” value was 4.731, the “vegfa Mean” value was 475.2 and the “vegfc Mean” value was 106.3. The “vegfd Mean” value was 145.4.
